Assay results from PubChem BioAssay (NCI).
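Cells were grown in 96-well plates and exposed to each compound for 48 hours at five concentrations; endpoints were interpolated linearly between bracketing concentrations, or set to the highest concentration if not reached. GI50 = concentration required for 50% inhibition of growth. TGI: total growth inhibition.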

Experiments:
Experiment in all cases: NCI anticancer screen, dose series, 48 h
OVCAR-8 ovarian = tested on: OVCAR-8 ovarian
UACC-257 melanoma = tested on: UACC-257 melanoma
SN12C renal = tested on: SN12C renal
786-0 renal = tested on: 786-0 renal
BT-549 breast = tested on: BT-549 breast
K-562 leukemia = tested on: K-562 leukemia
PC-3 prostate = tested on: PC-3 prostate
SF-295 CNS = tested on: SF-295 CNS
SNB-75 CNS = tested on: SNB-75 CNS
HOP-62 NSCLC = tested on: HOP-62 NSCLC
IGROV1 ovarian = tested on: IGROV1 ovarian
HS 578T breast = tested on: HS 578T breast
SK-MEL-28 melanoma = tested on: SK-MEL-28 melanoma
OVCAR-3 ovarian = tested on: OVCAR-3 ovarian
MOLT-4 leukemia = tested on: MOLT-4 leukemia
SK-MEL-5 melanoma = tested on: SK-MEL-5 melanoma
U251 CNS = tested on: U251 CNS
SK-OV-3 ovarian = tested on: SK-OV-3 ovarian
COLO 205 colon = tested on: COLO 205 colon
LOX IMVI melanoma = tested on: LOX IMVI melanoma
KM12 colon = tested on: KM12 colon
NCI-H460 lung = tested on: NCI-H460 lung
HOP-92 NSCLC = tested on: HOP-92 NSCLC
UO-31 renal = tested on: UO-31 renal
MCF7 breast = tested on: MCF7 breast
HCT-116 colon = tested on: HCT-116 colon
SF-539 CNS = tested on: SF-539 CNS
NCI-H23 lung = tested on: NCI-H23 lung
MDA-MB-435 = tested on: MDA-MB-435
MALME-3M melanoma = tested on: MALME-3M melanoma
T-47D breast = tested on: T-47D breast
RPMI-8226 leukemia = tested on: RPMI-8226 leukemia
OVCAR-5 ovarian = tested on: OVCAR-5 ovarian
SR leukemia = tested on: SR leukemia
CCRF-CEM leukemia = tested on: CCRF-CEM leukemia
CAKI-1 renal = tested on: CAKI-1 renal
M14 melanoma = tested on: M14 melanoma
SF-268 CNS = tested on: SF-268 CNS
HL-60(TB) leukemia = tested on: HL-60(TB) leukemia
TK-10 renal = tested on: TK-10 renal
NCI-H522 lung = tested on: NCI-H522 lung
HT29 colon = tested on: HT29 colon
SK-MEL-2 melanoma = tested on: SK-MEL-2 melanoma
NCI/ADR-RES ovarian = tested on: NCI/ADR-RES ovarian
A498 renal = tested on: A498 renal
ACHN renal = tested on: ACHN renal
OVCAR-4 ovarian = tested on: OVCAR-4 ovarian
MDA-MB-231 breast = tested on: MDA-MB-231 breast
HCT-15 colon = tested on: HCT-15 colon
UACC-62 melanoma = tested on: UACC-62 melanoma
A549 NSCLC = tested on: A549 NSCLC
NCI-H226 lung = tested on: NCI-H226 lung
SW-620 colon = tested on: SW-620 colon
SNB-19 CNS = tested on: SNB-19 CNS
HCC-2998 colon = tested on: HCC-2998 colon
EKVX NSCLC = tested on: EKVX NSCLC
DU-145 prostate = tested on: DU-145 prostate

Structure (SMILES): CCN(CC)c1ccc2c(c1)OC(N)=C(C#N)C2c1cc(OC)c2c(c1)OCO2 (stereo not drawn)
- GI50 (OVCAR-8 ovarian): 39.5 nM
- TGI (OVCAR-8 ovarian): 3530 nM
- GI50 (UACC-257 melanoma): 312 nM
- TGI (UACC-257 melanoma): 14500 nM
- GI50 (SN12C renal): 53.7 nM
- TGI (SN12C renal): 6090 nM
- GI50 (786-0 renal): 43.8 nM
- TGI (786-0 renal): 3160 nM
- GI50 (BT-549 breast): 66.1 nM
- TGI (BT-549 breast): 455 nM
- GI50 (K-562 leukemia): < 17.5 nM
- TGI (K-562 leukemia): 4320 nM
- GI50 (PC-3 prostate): 30.9 nM
- TGI (PC-3 prostate): > 100000 nM
- GI50 (SF-295 CNS): < 15.7 nM
- TGI (SF-295 CNS): 2680 nM
- GI50 (SNB-75 CNS): 20 nM
- TGI (SNB-75 CNS): 42500 nM
- GI50 (HOP-62 NSCLC): 60.2 nM
- TGI (HOP-62 NSCLC): 20300 nM
- GI50 (IGROV1 ovarian): 104 nM
- TGI (IGROV1 ovarian): 33700 nM
- GI50 (HS 578T breast): 16.7 nM
- TGI (HS 578T breast): 409 nM
- GI50 (SK-MEL-28 melanoma): 34.5 nM
- TGI (SK-MEL-28 melanoma): 22700 nM
- GI50 (OVCAR-3 ovarian): 16.8 nM
- TGI (OVCAR-3 ovarian): 46.6 nM
- GI50 (MOLT-4 leukemia): 49.7 nM
- TGI (MOLT-4 leukemia): 3550 nM
- GI50 (SK-MEL-5 melanoma): 28.7 nM
- TGI (SK-MEL-5 melanoma): 597 nM
- GI50 (U251 CNS): 40.8 nM
- TGI (U251 CNS): 2380 nM
- GI50 (SK-OV-3 ovarian): 35 nM
- TGI (SK-OV-3 ovarian): 12700 nM
- GI50 (COLO 205 colon): 37.7 nM
- TGI (COLO 205 colon): 424 nM
- GI50 (LOX IMVI melanoma): 57.7 nM
- TGI (LOX IMVI melanoma): 3860 nM
- GI50 (KM12 colon): 32.5 nM
- TGI (KM12 colon): 603 nM
- GI50 (NCI-H460 lung): 33.6 nM
- TGI (NCI-H460 lung): 503 nM
- GI50 (HOP-92 NSCLC): 107 nM
- TGI (HOP-92 NSCLC): 3580 nM
- GI50 (UO-31 renal): 403 nM
- TGI (UO-31 renal): > 43300 nM
- GI50 (MCF7 breast): 29.4 nM
- TGI (MCF7 breast): 11500 nM
- GI50 (HCT-116 colon): 32.4 nM
- TGI (HCT-116 colon): 1780 nM
- GI50 (SF-539 CNS): 27.1 nM
- TGI (SF-539 CNS): 80.6 nM
- GI50 (NCI-H23 lung): 35.9 nM
- TGI (NCI-H23 lung): 14500 nM
- GI50 (MDA-MB-435): < 10.8 nM
- TGI (MDA-MB-435): 27.6 nM
- GI50 (MALME-3M melanoma): 445 nM
- TGI (MALME-3M melanoma): 5590 nM
- GI50 (T-47D breast): 3320 nM
- TGI (T-47D breast): 22000 nM
- GI50 (RPMI-8226 leukemia): 47.4 nM
- TGI (RPMI-8226 leukemia): 2510 nM
- GI50 (OVCAR-5 ovarian): 63.9 nM
- TGI (OVCAR-5 ovarian): 30100 nM
- GI50 (SR leukemia): < 17 nM
- TGI (SR leukemia): 1980 nM
- GI50 (CCRF-CEM leukemia): 30.8 nM
- TGI (CCRF-CEM leukemia): 1710 nM
- GI50 (CAKI-1 renal): 108 nM
- TGI (CAKI-1 renal): 59100 nM
- GI50 (M14 melanoma): 13.8 nM
- TGI (M14 melanoma): 45.9 nM
- GI50 (SF-268 CNS): 60 nM
- TGI (SF-268 CNS): 3030 nM
- GI50 (HL-60(TB) leukemia): 26.9 nM
- TGI (HL-60(TB) leukemia): 141 nM
- GI50 (TK-10 renal): 316 nM
- TGI (TK-10 renal): 25500 nM
- TGI (NCI-H522 lung): 47.4 nM
- GI50 (HT29 colon): 31.7 nM
- TGI (HT29 colon): 309 nM
- GI50 (SK-MEL-2 melanoma): 47.6 nM
- TGI (SK-MEL-2 melanoma): 13800 nM
- GI50 (NCI/ADR-RES ovarian): < 14.2 nM
- TGI (NCI/ADR-RES ovarian): 67.9 nM
- GI50 (A498 renal): 20.1 nM
- TGI (A498 renal): 80.9 nM
- GI50 (ACHN renal): 101 nM
- TGI (ACHN renal): 6700 nM
- GI50 (OVCAR-4 ovarian): 75.4 nM
- TGI (OVCAR-4 ovarian): > 48600 nM
- GI50 (MDA-MB-231 breast): 55.7 nM
- TGI (MDA-MB-231 breast): 2730 nM
- GI50 (HCT-15 colon): 34.9 nM
- TGI (HCT-15 colon): 3930 nM
- GI50 (UACC-62 melanoma): < 18.4 nM
- TGI (UACC-62 melanoma): 13500 nM
- GI50 (A549 NSCLC): 32.2 nM
- TGI (A549 NSCLC): > 100000 nM
- GI50 (NCI-H226 lung): 47 nM
- TGI (NCI-H226 lung): 942 nM
- GI50 (SW-620 colon): 35.4 nM
- TGI (SW-620 colon): > 48900 nM
- GI50 (SNB-19 CNS): 41.8 nM
- TGI (SNB-19 CNS): 51000 nM
- GI50 (HCC-2998 colon): 30.2 nM
- TGI (HCC-2998 colon): 1350 nM
- GI50 (EKVX NSCLC): 76.7 nM
- TGI (EKVX NSCLC): > 100000 nM
- GI50 (DU-145 prostate): 35.8 nM
- TGI (DU-145 prostate): 428 nM
